# Laboratory results: patent publication US20240115416A1, “SEGMENTED EVA INTRAVAGINAL RINGS” (priority 2019, published 2024)
# Experiment: Pharmacokinetics after single intravenous bolus of E2 and P in sheep
# Type: in vivo
# Conditions: Dorset crossbred, plasma, E2 160 μg, P 10 mg, mean; for AUC(0-inf): n = 2; for clearance: n = 2, read-out: CL, total body clearance (converted); for half-life: n = 2, read-out: T1/2, terminal half-life (converted); for Vd: n = 2, read-out: Vz, volume of distribution based on terminal elimination phase
# Description: Standard noncompartmental PK analysis methods were used.
SMILES,AUC(0-inf),clearance,half-life,Vd
"CC(=O)[C@H]1CC[C@H]2[C@@H]3CCC4=CC(=O)CC[C@]4(C)[C@H]3CC[C@]12C [P, progesterone]",20 ng·h/mL,8330 mL/min,2.75 h,1980 L
"C[C@]12CC[C@@H]3c4ccc(O)cc4CC[C@H]3[C@@H]1CC[C@@H]2O [E2, 17β-estradiol]",1.79 ng·h/mL,1490 mL/min,2.22 h,287 L
